In the supplement of paper PMC10307832:

compound: CC(C)(C)c1cc(NC(=O)Nc2ccc(-c3cn4c(n3)sc3cc(OCCN5CCOCC5)ccc34)cc2)no1 [Quizartinib] + Cc1nc(Nc2ncc(C(=O)Nc3c(C)cccc3Cl)s2)cc(N2CCN(CCO)CC2)n1 [Dasatinib] (partner 0.075 µM); experiment: relative viability (nuclei count vs DMSO), 5 days (fraction); higher = more cells survive; details: first compound 0.1 µM
In short: (§1)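 Values are medians from duplicate plates. Each reflects relative viability, defined as the nuclei count of treated wells over that of vehicle wells. Lung cancer cell lines in 1536-well plates were pin-tool dosed one day after seeding with one drug alone or with a fixed anchor-drug dose plus five library-drug doses (not always all listed) in √10 steps, then fixed, stained and imaged at 4× after 5 days.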

Cell Line | relative viability
NCI-H1355 | 0.66
H3255 | 0.345
NCI-H1792 | 0.836
NCI-H647 | 0.185
NCI-H1623 | 0.598
LCLC-97TM1 | 0.738
LXF-289 | 0.29
LU99A | 0.135
NCI-H2023 | 0.613
NCI-H2228 | 0.509
NCI-H1437 | 0.363
NCI-H1395 | 0.413
NCI-H2009 | 0.26
HCC-366 | 0.657
NCI-H1915 | 0.324
NCI-H2347 | 0.304
LCLC-103H | 0.487
HCC-78 | 0.346

compound: COCC[n+]1c2c(n(Cc3cnccn3)c1C)C(=O)c1ccccc1C2=O [YM155] + Cc1cc(Nc2cc(N3CCN(C)CC3)nc(Sc3ccc(NC(=O)C4CC4)cc3)n2)n[nH]1 [Tozasertib] (partner 0.1 µM); experiment: as above; details: first compound 0.002 µM
In short: as §1

Cell Line | relative viability
EKVX | 0.401
EPLC-272H | 0.349
NCI-H520 | 0.432
NCI-H650 | 0.742
RERF-LC-KJ | 0.375
HCC-827 | 0.421
NCI-H2087 | 0.253
SK-MES-1 | 0.853
NCI-H1651 | 0.641
UMC-11 | 0.209
NCI-H1355 | 0.617
H3255 | 0.68
NCI-H647 | 0.317
NCI-H1623 | 0.434
LCLC-97TM1 | 0.197
LXF-289 | 0.186
LU99A | 0.26
NCI-H2023 | 0.416
NCI-H2228 | 0.265
NCI-H1437 | 0.421
NCI-H1395 | 0.788
NCI-H2009 | 0.739
HCC-366 | 0.142
NCI-H1915 | 0.393
NCI-H2347 | 0.531
LCLC-103H | 0.569
HCC-78 | 0.442
HCC-44 | 1.01

same assay, conditions: first compound 0.006325 µM

Cell Line | relative viability
EKVX | 0.411
EPLC-272H | 0.198
NCI-H520 | 0.496
NCI-H650 | 0.686
RERF-LC-KJ | 0.482
HCC-827 | 0.416
NCI-H2087 | 0.23
SK-MES-1 | 0.866
NCI-H1651 | 0.686
UMC-11 | 0.199
NCI-H1355 | 0.518
H3255 | 0.59
NCI-H647 | 0.302
NCI-H1623 | 0.461
LCLC-97TM1 | 0.202
LXF-289 | 0.214
LU99A | 0.255
NCI-H2023 | 0.433
NCI-H2228 | 0.26
NCI-H1437 | 0.416
NCI-H1395 | 0.779
NCI-H2009 | 0.791
HCC-366 | 0.136
NCI-H1915 | 0.458
NCI-H2347 | 0.59
LCLC-103H | 0.454
HCC-78 | 0.454
HCC-44 | 1.01

same assay, conditions: first compound 0.02 µM

Cell Line | relative viability
EKVX | 0.448
EPLC-272H | 0.449
NCI-H520 | 0.48
NCI-H650 | 0.764
RERF-LC-KJ | 0.563
HCC-827 | 0.448
NCI-H2087 | 0.253
SK-MES-1 | 0.483
NCI-H1651 | 0.685
UMC-11 | 0.213
NCI-H1355 | 0.654
H3255 | 0.616
NCI-H647 | 0.401
NCI-H1623 | 0.431
LCLC-97TM1 | 0.227
LXF-289 | 0.205
LU99A | 0.318
NCI-H2023 | 0.314
NCI-H2228 | 0.213
NCI-H1437 | 0.455
NCI-H1395 | 0.814
NCI-H2009 | 0.776
HCC-366 | 0.135
NCI-H1915 | 0.444
NCI-H2347 | 0.786
LCLC-103H | 0.464
HCC-78 | 0.52
HCC-44 | 0.888

same assay, conditions: first compound 0.06325 µM

Cell Line | relative viability
EKVX | 0.379
EPLC-272H | 0.223
NCI-H520 | 0.377
NCI-H650 | 0.646
RERF-LC-KJ | 0.468
HCC-827 | 0.475
NCI-H2087 | 0.219
SK-MES-1 | 0.267
NCI-H1651 | 0.33
UMC-11 | 0.212
NCI-H1355 | 0.597
H3255 | 0.351
NCI-H647 | 0.303
NCI-H1623 | 0.425
LCLC-97TM1 | 0.22
LXF-289 | 0.183
LU99A | 0.265
NCI-H2023 | 0.0926
NCI-H2228 | 0.316
NCI-H1437 | 0.276
NCI-H1395 | 0.777
NCI-H2009 | 0.458
HCC-366 | 0.113
NCI-H1915 | 0.36
NCI-H2347 | 0.567
LCLC-103H | 0.487
HCC-78 | 0.498
HCC-44 | 0.273
